Assays:
[1] = test system: human HDAC enzymes HDAC1-HDAC11; assay: HDAC inhibition profiling (Fluor de Lys); assay type: biochemical; conditions: 100 μM, HDAC1-HDAC11, 1% DMSO
Protocol: (§1) FIG. 2: In silico docking analysis with 6-PN and 8-PN illustrates the inhibitory potential on human-derived HDACs of class I and II. (A) Results of the in silico docking analysis of 6-PN and 8-PN with crystal structures of HDAC2 (class I) and HDAC4 (class II). […] Both molecules are predicted to interact with the zinc ion as well as other residues of the catalytic center. Docking analyses of 6-PN and 8-PN in the individual HDAC binding pockets were performed using GOLD (version 4.1.2) and MOE (version 2009.10). (B) Overall HDAC inhibition in cellular extracts of the human cell line HeLa by increasing concentrations of 6-PN and 8-PN (5 μM, 10 μM, 20 μM, 50 μM and 100 μM). As reference inhibitor 100 μM SAHA was used. Every concentration was tested three times in triplicates. Shown are the mean±SD. (C) Specific fluometric profiling assay using recombinant human HDACs of classes I, II and IV. Specific inhibition values were generated for the treatment with 100 μM 6-PN and 8-PN. […]
The human HDAC profiling assay was performed on the basis of the Fluor de Lys™ technology by Scottish Biomedical, Glasgow, United Kingdom. The percentage inhibition values of 100 μM of 6-PN and 100 μM of 8-PN against the human HDAC enzymes HDAC1, HDAC2, HDAC3, HDAC4, HDAC5, HDAC6, HDAC7, HDAC8, HDAC9, HDAC10, and HDAC11 were determined. […]

[2] = test system: prostate cancer cell line PC-3; conditions: PC-3 in vitro; cited from earlier work
[3] = test system: breast cancer cells MCF-7; conditions: cited from earlier work
SK-MEL-28 melanoma cells = assay: Real time cell monitoring assay (xCELLigence), SK-MEL-28; assay type: cell-based, human; conditions: SK-MEL-28, 20, 50 and 100 μM, 104 hours, vs. control
Protocol: FIG. 5: real time cell monitoring of BLM and SK-MEL-28 melanoma cells treated with 6-PN and 8-PN. (A) BML and SK-MEL-28 cells were treated 24 hours after seeding with different concentrations of 6-PN and 8-PN (20 μM, 50 μM and 100 μM) over a 104 hour time period. The cellular impedance was measured over the entire observation time using the xCELLigence™ SP system and is depicted by the cell index (CI). All CI-values were normalized shortly before the treatment started. […] As a positive control, Triton X-100 0.1% was used to induce cell death. Shown are the mean±SD of three independent experiments, each performed in triplicates (B, C). […]
The human melanoma cell lines BLM and SK-MEL-28 (2.5×10^3 cells/well) were seeded in 96 well plates. The cells were treated after 24 hours with different concentrations of 6-PN or 8-PN (20 μM, 50 μM and 100 μM) and monitored by measurements of electrical impedance in 15 minutes intervals for an overall time span of in total 104 hours using the xCELLigencer® SP Systems (Roche Applied Science). The cell index values were calculated using the RTCA software (1.0.0.0805). […]
The human metastatic melanoma cell lines BLM and SK-MEL-28 were treated once with rising concentrations of 6-PN or 8-PN (20 μM, 50 μM and 100 μM) and monitored continuously for an overall time span of 104 hours using a real time monitoring assay (FIG. 5A). […]

[4] = test system: human HDAC enzymes from nuclear extract of HeLa cells; assay: HDAC inhibitor screening assay (HeLa nuclear extract); assay type: biochemical; conditions: 6-PN 5 μM, 8-PN 10 μM
Protocol: as §1, with “8-PN. TSA was used as reference inhibitor (HDAC1, 2, 3, 6, 10, 11: 10 nM; HDAC4, 8, 9: 1 μM; HDAC5, 7:10 μM). The inhibition vales for every HDAC were yielded by one experiment performed in duplicates Shown are the mean±S.A.” for “8-PN.”

[5] = test system: primary human fibroblasts (FF868); assay: MUH proliferation assay, fibroblasts; assay type: cell-based; conditions: 6-PN, 8-PN 0.1 μM to 100 μM; TSA, SAHA 100 μM
Protocol: FIG. 5: real time cell monitoring of BLM and SK-MEL-28 melanoma cells treated with 6-PN and 8-PN. (A) BML and SK-MEL-28 cells were treated 24 hours after seeding with different concentrations of 6-PN and 8-PN (20 μM, 50 μM and 100 μM) over a 104 hour time period. The cellular impedance was measured over the entire observation time using the xCELLigence™ SP system and is depicted by the cell index (CI). All CI-values were normalized shortly before the treatment started. […] As a positive control, Triton X-100 0.1% was used to induce cell death. Shown are the mean±SD of three independent experiments, each performed in triplicates (B, C). […] Shown are the mean±SD; the experiments were performed in quadruplicates. (D) The MUH proliferation assay was repeated unter the same treatment conditions on primary human fibroblasts (FF868) and melanocytes (HEM1).
The cells were seeded in triplicates in 96-well plates at a density of 2,500 cells per well in 50 μl medium (5×10^4 cells per milliliter). After 24 hours, the medium was replaced by medium containing 6-PN, 8-PN (dissolved in DMSO), TSA (dissolved in EtOH) or SAHA (dissolved in DMSO) at the concentrations to be tested with or without the addition of the necrosis inhibitor IM-54 at 5 μM (Calbiochem, Darmstadt, Germany). Cells treated with culture medium without or with DMSO served as controls. The assay was started following an incubation of 24 hours. […] Plates were incubated at 37° C. for 1 hour and measured in a Fluoroskan II (Lab Systems, Helsinki, Finland) with a […]. The intensity of fluorescence indicates the number of viable cells in the wells.
Next it was asked whether the PNs also influence the proliferation of benign cells. To this end, human fibroblasts (FF) and foreskin melanocytes (HEM1) were treated with the same concentrations of 6-PN and 8-PN, and proliferation was assessed using the proliferation assay as described above.

## CC(C)=CCc1c(O)cc(O)c2c1OC(c1ccc(O)cc1)CC2=O (stereo not drawn) [8-PN, 5,7-Dihydroxy-2-(4-hydroxy-phenyl)-8-(3-methyl-but-2-enyl)-chroman-4-one]
[1]
  inhibition of HDAC activity on all tested human HDACs: strongly inhibited
[2]
  antiproliferative effects: antiproliferative effects
[3]
  effects on breast cancer cells compared with 17β-Estradiol: imitates the effects of 17β-Estradiol
SK-MEL-28 melanoma cells
  normalized cell index (CI): descended over time
[4]
  HDAC inhibitory effect at low concentration: showed inhibitory effects
[5]
  fibroblast proliferation: hardly affected

Reference: patent US20160067211A1, “PHARMACEUTICAL COMPOSITION” (Eberhard Karls Universitaet Tuebingen Medizinische Fakultaet, priority 2013, published 2016)
